What was measured:
[1] = Electrochemical impedance spectroscopy (EIS) of galvanized steel in 3.5% NaCl with additives; details: for η, inhibitor efficiency from EIS: 3.5% NaCl, 25° C, pH 5.6, additive 10 mg/mL
Procedure: The electrochemical open-to-air cell (PTC1™ Paint Test Cell, Gamry Instruments, Warminster, Pa.) was utilized for the potentiodynamic polarization (Tafel tests) and electrochemical impedance spectroscopy experiments. […] Tafel tests (ASTM GS) were conducted using a Parstat PMC-2000 multichannel potentiostat equipped with Versa Studio 2.50.3 software (Princeton Applied Research, Oak Ridge, Tenn.). Tafel tests were modeled with a ZSIMPWIN™ software for complex nonlinear least square analyses fitting the circuit models of the electrode interface to the Nyquist amplitude of 10 mV at the open circuit potential in the frequency range of 100 kHz to 0.2 Hz. […] In a series of measurements with the corrosion inhibiting additives, a range of the additive concentrations was studied and the scan range was set from 150 mV below the open circuit voltage (OCV) to 200 mV more positive than the OCV, with three measurements for each condition. The range in these measurements was limited in order to minimize the cathodic polarization causing local pH changes.
EIS (FIGS. 17A and 17B) was applied to further reveal the effects of the corrosion inhibitors on the electrolyte-galvanized steel electrode interface and to complement the potentiodynamic polarization measurements. The qualitative information was obtained using fit analysis embedded into the software used to model the spectra, employing electrical equivalent circuits (EECs).
Elements of the EECs are described in the legend to FIGS. 17A and 17B. The corrosion resistance of the galvanized steel surface in the presence of the corrosion inhibitor represents the RCT+Rp sum. In the control measurement without the additive, the spectrum with one time constant EEC was used, wherein the electrode resistance is represented by RCT.
EIS measurements enabled estimation of the corrosion inhibition efficiency: […]

[2] = Potentiodynamic polarization (Tafel tests) of galvanized steel in 3.5% NaCl with additives; details: for Corrosion rate / Icorr (corrosion current density) / IE, inhibitor efficiency from Tafel: 25° C; for formation of white rust on the steel working electrode: millimolar or higher concentrations in 3.5% NaCl; for corrosion inhibitor efficiency compared with other additives: pH 5.3, equivalent concentrations
Source text: The electrochemical open-to-air cell (PTC1™ Paint Test Cell, Gamry Instruments, Warminster, Pa.) was utilized for the potentiodynamic polarization (Tafel tests) and electrochemical impedance spectroscopy experiments. The electrochemical cell was composed of working electrode made of galvanized steel (zinc-galvanized sheets of type B carbon steel, ASTM A653, total thickness 0.305 mm, working area 2.2 cm^2 or 15.2 cm^2, McMaster Carr Supply Co., Robbinsvill, N.J.), reference Ag/AgCl electrode, and Pt wire auxiliary electrode (BASK) Corp., West Lafayette, Ind.). Prior to the immersion in the electrolyte (3.5% NaCl, pH adjusted to 5.25-5.3, 40 mL), the working electrodes were washed by acetone, ethanol, dried by nitrogen flow and polished with P1200 grit.^24 The working electrode was immersed into electrolyte containing the tested compound at a given concentration with desired pH at 25° C. for 60 min prior to each measurement. […] The carbon steel used herein was coated with the average minimum coating thickness per ASTM A653 being 2.0 mils (0.0508 mm) per surface. Tafel tests (ASTM GS) were conducted using a Parstat PMC-2000 multichannel potentiostat equipped with Versa Studio 2.50.3 software (Princeton Applied Research, Oak Ridge, Tenn.). Tafel tests were modeled with a ZSIMPWIN™ software for complex nonlinear least square analyses fitting the circuit models of the electrode interface to the Nyquist amplitude of 10 mV at the open circuit potential in the frequency range of 100 kHz to 0.2 Hz. Parameters for Tafel tests were as follows: initial potential, −1.25 V (vs reference); final potential, −0.45 V; scan properties: step height, 0.5 mV, step time, 2 s. In a series of measurements with the corrosion inhibiting additives, a range of the additive concentrations was studied and the scan range was set from 150 mV below the open circuit voltage (OCV) to 200 mV more positive than the OCV, with three measurements for each condition. The range in these measurements was limited in order to minimize the cathodic polarization causing local pH changes.
In the vicinity of Ecorr both currents are present in the specimen, but experimentally it is possible to measure only the net current. The net current has a single measurable polarity, either positive or negative. At Ecorr the net measured current is exactly zero. The corrosion current (icorr) is expressed as (for definitions, see FIG. 13):
[formula] where E.W. is the equivalent weight of the corroding species, g. In this case, the corroding species is Zn, so E.W.=32.7 g. Icorr, is the corrosion current density in μA/cm^2, and d is the density of the corroding species. Density of zinc is 7.140 g/cm^3.
From the icorr values, inhibitor efficiencies (IE, %) were calculated as (equation (1)): […]

[3] = cited from earlier work
[4] = cited from earlier work; remark: listed apart in the source
[5] = 44.7 mM, electrolyte containing 0.0165 wt % NaCl (pH not stated); cited from earlier work
[6] = Solubility / dissolution testing
[7] = Hygroscopicity on standing in an open jar at 80% relative humidity; assay type: physicochemical; details: converted to pasty solid
Procedure: The crystals were hygroscopic and converted to caramel-like, pasty solid on standing in an open jar at 80% relative humidity. […] Thermogravimetric analysis (TGA) and simultaneous differential scanning calorimetry (DSC) were conducted using a Q600 TGA/DSC instrument (TA Instruments, Inc.). Samples were subjected to heating scans (10 or 20° C./min) in a temperature ramp mode under nitrogen atmosphere.

[8] = 3.5% NaCl, pH 5.3, [Mg2+] 71.8, [Ac−] 144, [TDPA] 0 meq/L
[9] = 3.5% NaCl, pH 5.6, additive 10 mg/mL
[10] = 3.5% NaCl, pH 2.1, [TDPA] 94.8 meq/L
[11] = 3.5% NaCl, pH 5.3, [TDPA] 47.4 meq/L
[12] = 3.5% NaCl, pH 5.3, [TDPA] 94.8 meq/L
[13] = 3.5% NaCl, pH 5.3, [Mg2+] 9.93, [Ac−] 9.93, [TDPA] 15.9 meq/L
[14] = 3.5% NaCl, pH 5.3, [Mg2+] 41.9, [Ac−] 41.9, [TDPA] 67.1 meq/L
[15] = 3.5% NaCl, pH 5.3, [Mg2+] 62.9, [Ac−] 62.9, [TDPA] 101 meq/L
[16] = 3.5% NaCl, pH 5.3, [Mg2+] 49.8, [TDPA] 49.8 meq/L
[17] = 3.5% NaCl, pH 5.3, [Mg2+] 167, [TDPA] 33.5 meq/L

CC(=O)[O-].CC(=O)[O-].O.O.O.O.[Mg+2] [MgAc2, magnesium acetate tetrahydrate, reference compound]
η, inhibitor efficiency from EIS [1]: 41%
Corrosion rate [2, 8]: 37.0 mpy
Icorr (corrosion current density) [2, 8]: 62.1 μA/cm^2
Corrosion rate [2, 9]: 8.03 mpy
IE, inhibitor efficiency from Tafel [2, 9]: 48%
Icorr (corrosion current density) [2, 9]: 13.5 μA/cm^2

O=C(O)CCSCCC(=O)O [TDPA, 3,3′-thiodipropionic acid, reference compound]
solubility in solvents [3]: soluble in water, acetone, and alcohol
η, inhibitor efficiency from EIS [1]: 81%
Corrosion rate [2, 10]: 474 mpy
Icorr (corrosion current density) [2, 10]: 796 μA/cm^2
Corrosion rate [2, 11]: 26.5 mpy
Icorr (corrosion current density) [2, 11]: 44.5 μA/cm^2
Corrosion rate [2, 12]: 16.9 mpy
Icorr (corrosion current density) [2, 12]: 28.4 μA/cm^2
Corrosion rate [2, 9]: 2.47 mpy
IE, inhibitor efficiency from Tafel [2, 9]: 84%
Icorr (corrosion current density) [2, 9]: 4.15 μA/cm^2
formation of white rust on the steel working electrode [2]: visibly reduced the formation of white rust
pKa [4]: 4.11

CCCCCCCCCC(=O)O [decanoic acid]
inhibition efficiency η [5]: 83.5%

magnesium acetate thiodipropionate [MgAcTDPA]
η, inhibitor efficiency from EIS [1]: 80%
concentration on dissolution in warm ethanol ([6]; warm ethanol): at least 10 wt %
Corrosion rate [2, 13]: 29.4 mpy
Icorr (corrosion current density) [2, 13]: 49.3 μA/cm^2
Corrosion rate [2, 14]: 7.9 mpy
Icorr (corrosion current density) [2, 14]: 13.3 μA/cm^2
Corrosion rate [2, 15]: 1.85 mpy
Icorr (corrosion current density) [2, 15]: 3.12 μA/cm^2
Corrosion rate [2, 9]: 2.41 mpy
IE, inhibitor efficiency from Tafel [2, 9]: 84%
Icorr (corrosion current density) [2, 9]: 4.06 μA/cm^2
corrosion inhibitor efficiency compared with other additives ([2]; 3.5% NaCl): the most efficient corrosion inhibitor
formation of white rust on the steel working electrode [2]: visibly reduced the formation of white rust
hygroscopicity of the crystals [7]: hygroscopic

magnesium thiodipropionate [MgTDPA1:1]
increase in total resistance Ri=RCT+Rp versus Ro=RCT without inhibitor ([1]; 10 mg/mL in 3.5% NaCl, pH 5.6, 25° C): 283 fold
η, inhibitor efficiency from EIS [1]: 99%
effect on Icorr in Tafel plots (FIG. 16) ([2]; 10 mg/mL in 3.5% NaCl, pH 5.6, versus no additive and other additives): reduced the Icorr values the most
breakdown potentials (instability of the oxide film, pitting corrosion) ([2]; 1-2 mM concentrations and above in the 3.5% NaCl electrolyte): increased
Corrosion rate [2, 16]: 21.1 mpy
Icorr (corrosion current density) [2, 16]: 35.5 μA/cm^2
Corrosion rate [2, 9]: 1.07 mpy
IE, inhibitor efficiency from Tafel [2, 9]: 93%
Icorr (corrosion current density) [2, 9]: 1.79 μA/cm^2
corrosion inhibitor effectiveness compared with controls (data in Table 1) ([2]; galvanized steel, 3.5% NaCl): more effective corrosion inhibitor for galvanized steel than either TDPA or MgAc2
formation of white rust on the steel working electrode [2]: visibly reduced the formation of white rust

magnesium thiodipropionate [MgTDPA5:1]
η, inhibitor efficiency from EIS [1]: 72%
solubility in the electrolyte ([6]; 3.5% NaCl electrolyte, yielded a suspension): only fractionally soluble
Corrosion rate [2, 17]: 50.7 mpy
Icorr (corrosion current density) [2, 17]: 85.1 μA/cm^2
Corrosion rate [2, 9]: 4.65 mpy
IE, inhibitor efficiency from Tafel [2, 9]: 69%
Icorr (corrosion current density) [2, 9]: 7.82 μA/cm^2
corrosion inhibitor efficiency compared with other additives ([2]; 3.5% NaCl): quite effective in reducing the corrosion rate

Source: patent publication US10934439B2, “Additives for coating compositions and related methods” (Massachusetts Institute of Technology, priority 2017, dated 2021)
